Measured values reported in patent publication US7112339B1, “Compositions for controlled release of a biologically active agent, and the preparation thereof” (DelSiTech Oy, priority 1999, dated 2006).

System: Factor Xa
Test: Factor Xa assay (HEPRN) of heparin biological activity
Assay type: biochemical
Description: The silica sol loaded with heparin was prepared by a two step sol-gel process using acid as a catalyst (Ellerby et al. 1992). The following reagents were used, tetraethoxysilane (TEOS) (Aldrich), deionized water, nitric acid (HNO3) (Merck), acetic acid (CH3COOH) (Merck), ammonium hydroxide (NH4OH) (Merck)) and heparin sodium salt (Orion Corporation, Finland). The biological activity of the used heparin was 84 IU/mg measured by Factor Xa assay (HEPRN). The first step of the reaction series was a hydrolysis reaction between water and alkoxide. The mol ratio of the silica sol was TEOS:H2O:HNO3=1:15:0.0015 and TEOS:H2O:CH3COOH=1:15:0.026, respectively. Modification of the nitric acid catalyzed sol was carried out by co-hydrolysis of TEOS with the following organomodified (i.e. alkylsubstituted) alkoxysilanes: dimethyldiethoxysilane Me2Si(OEt)2 (DMDES) (Lancaster), methyltriethoxysilane MeSi(OEt)3(METES) (Aldrich) or ethyltriethoxysilane EtSi(OEt)3 (ETES) (Lancaster). For the partial substitution of TEOS, 10 or 25 mol-% organomodified alkoxysilane was used. After the first step, i.e. hydrolysis reaction, pH was raised to 4.54.8 with base (0.1 or 1 M NH4OH) before heparin addition. […] The concentration of heparin in silica sol ranged from 1 wt % to 4 wt % calculated on the sol, corresponding to 6.8–29.2 wt % in the air dried silica xerogel. […]

Question: With heparin as the substance, how does the “biological activity of the used heparin” value read?
Answer: Its value is 84 IU/mg.
